Measurements: ChEMBL document CHEMBL4507310, “Data for DCP probe A-1211212” (2021)

Tests used:
[1] = molecular target: Death-associated protein kinase 1 (Homo sapiens) (UniProt P53355); conditions: Compound concentration 1000.0 nM
[2] = molecular target: Cyclin-dependent kinase 13 (Homo sapiens) (UniProt Q14004); conditions: Compound concentration 1000.0 nM
[3] = molecular target: Serine/threonine-protein kinase tousled-like 1 (Homo sapiens) (UniProt Q9UKI8); conditions: Compound concentration 1000.0 nM
[4] = system: Proto-oncogene tyrosine-protein kinase receptor Ret (Homo sapiens), P07949 [M918T]; conditions: Compound concentration 1000.0 nM
[5] = system: Mast/stem cell growth factor receptor Kit (Homo sapiens), P10721 [D816V]; conditions: Compound concentration 1000.0 nM
[6] = molecular target: cAMP-dependent protein kinase catalytic subunit PRKX (Homo sapiens) (UniProt P51817); conditions: Compound concentration 1000.0 nM
[7] = molecular target: Dual specificity protein kinase CLK1 (Homo sapiens) (UniProt P49759); conditions: Compound concentration 1000.0 nM
[8] = molecular target: Phosphatidylinositol 4,5-bisphosphate 3-kinase catalytic subunit alpha isoform (Homo sapiens) (UniProt P42336); conditions: Compound concentration 1000.0 nM
[9] = molecular target: Activin receptor type-2A (Homo sapiens) (UniProt P27037); conditions: Compound concentration 1000.0 nM
[10] = molecular target: Cannabinoid receptor 2 (Homo sapiens) (UniProt P34972); assay: CB2 (h) Eurofins-Cerep binding assay; parameters: ligand concentration 0.8 nM; conditions: filed as agonist, Compound concentration 10.0 uM
[11] = molecular target: Serine/threonine-protein kinase SIK3 (Homo sapiens) (UniProt Q9Y2K2); conditions: Compound concentration 1000.0 nM
[12] = molecular target: Mu-type opioid receptor (Homo sapiens) (UniProt P35372); conditions: Compound concentration 10.0 uM
[13] = molecular target: Calcium/calmodulin-dependent protein kinase type II subunit delta (Homo sapiens) (UniProt Q13557); conditions: Compound concentration 1000.0 nM
[14] = molecular target: Phosphatidylinositol 3-kinase catalytic subunit type 3 (Homo sapiens) (UniProt Q8NEB9); conditions: Compound concentration 1000.0 nM
[15] = molecular target: T1, Alpha-2B adrenergic receptor (Homo sapiens) (UniProt P18089); conditions: Compound concentration 10.0 uM
T1 sequence (whole entry): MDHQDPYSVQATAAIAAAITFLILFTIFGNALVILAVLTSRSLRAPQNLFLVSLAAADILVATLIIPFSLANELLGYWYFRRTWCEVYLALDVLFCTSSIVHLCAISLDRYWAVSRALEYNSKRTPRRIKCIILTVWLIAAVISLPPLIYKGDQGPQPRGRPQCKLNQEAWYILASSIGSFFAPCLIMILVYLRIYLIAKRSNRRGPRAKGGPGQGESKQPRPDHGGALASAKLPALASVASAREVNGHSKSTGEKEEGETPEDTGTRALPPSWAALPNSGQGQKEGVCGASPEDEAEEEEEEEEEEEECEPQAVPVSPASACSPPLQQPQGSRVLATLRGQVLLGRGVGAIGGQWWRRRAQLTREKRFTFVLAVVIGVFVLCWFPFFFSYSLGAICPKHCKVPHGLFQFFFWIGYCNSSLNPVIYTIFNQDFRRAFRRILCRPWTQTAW

[16] = molecular target: Dual specificity protein kinase CLK4 (Homo sapiens) (UniProt Q9HAZ1); conditions: Compound concentration 1000.0 nM
[17] = molecular target: Insulin-like growth factor 1 receptor (Homo sapiens) (UniProt P08069); conditions: Compound concentration 1000.0 nM
[18] = molecular target: Serine/threonine-protein kinase 32A (Homo sapiens) (UniProt Q8WU08); conditions: Compound concentration 1000.0 nM
[19] = molecular target: Mitogen-activated protein kinase kinase kinase 19 (Homo sapiens) (UniProt Q56UN5); conditions: Compound concentration 1000.0 nM
[20] = molecular target: Interleukin-1 receptor-associated kinase 3 (Homo sapiens) (UniProt Q9Y616); conditions: Compound concentration 1000.0 nM
[21] = molecular target: Serine/threonine-protein kinase WNK3 (Homo sapiens) (UniProt Q9BYP7); conditions: Compound concentration 1000.0 nM
[22] = molecular target: Non-receptor tyrosine-protein kinase TYK2 (Homo sapiens) (UniProt P29597); conditions: Compound concentration 1000.0 nM
[23] = molecular target: T2, Alpha-1B adrenergic receptor (Homo sapiens) (UniProt P35368); conditions: Compound concentration 10.0 uM
T2 sequence (whole entry): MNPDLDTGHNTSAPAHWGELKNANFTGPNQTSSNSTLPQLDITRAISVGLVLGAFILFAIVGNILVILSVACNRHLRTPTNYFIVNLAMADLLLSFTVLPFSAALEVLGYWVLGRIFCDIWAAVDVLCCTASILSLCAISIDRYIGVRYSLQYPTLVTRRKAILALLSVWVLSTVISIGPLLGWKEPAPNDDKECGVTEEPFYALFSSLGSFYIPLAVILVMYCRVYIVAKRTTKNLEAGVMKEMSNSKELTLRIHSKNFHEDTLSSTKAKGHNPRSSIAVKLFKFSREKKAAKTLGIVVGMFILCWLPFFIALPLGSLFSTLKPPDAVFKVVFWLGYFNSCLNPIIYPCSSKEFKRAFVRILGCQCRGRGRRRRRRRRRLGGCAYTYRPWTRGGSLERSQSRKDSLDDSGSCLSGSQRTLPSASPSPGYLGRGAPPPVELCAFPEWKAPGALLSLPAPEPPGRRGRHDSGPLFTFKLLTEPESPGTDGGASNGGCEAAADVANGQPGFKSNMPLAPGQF

[24] = molecular target: Serine/threonine-protein kinase BRSK2 (Homo sapiens) (UniProt Q8IWQ3); conditions: Compound concentration 1000.0 nM
[25] = system: Epidermal growth factor receptor (Homo sapiens), P00533 [T790M]; conditions: Compound concentration 1000.0 nM
[26] = molecular target: Serine/threonine-protein kinase TNNI3K (Homo sapiens) (UniProt Q59H18); conditions: Compound concentration 1000.0 nM
[27] = molecular target: Serine/threonine-protein kinase Sgk1 (Homo sapiens) (UniProt O00141); conditions: Compound concentration 1000.0 nM
[28] = molecular target: Sodium- and chloride-dependent GABA transporter 1 (Rattus norvegicus) (UniProt P23978); assay: GABA transporter Eurofins-Cerep binding assay; parameters: ligand concentration 10 nM; conditions: filed as antagonist, Compound concentration 10.0 uM
[29] = molecular target: Bone morphogenetic protein receptor type-1A (Homo sapiens) (UniProt P36894); conditions: Compound concentration 1000.0 nM
[30] = molecular target: Prostaglandin E2 receptor EP2 subtype (Homo sapiens) (UniProt P43116); assay: EP2 (h) Eurofins-Cerep binding assay; parameters: ligand concentration 3 nM; conditions: filed as agonist, Compound concentration 10.0 uM
[31] = molecular target: Serine/threonine-protein kinase PAK 4 (Homo sapiens) (UniProt O96013); conditions: Compound concentration 1000.0 nM
Serine/threonine-protein kinase PAK 4 (Homo sapiens), sequence (O96013 whole entry, looked up): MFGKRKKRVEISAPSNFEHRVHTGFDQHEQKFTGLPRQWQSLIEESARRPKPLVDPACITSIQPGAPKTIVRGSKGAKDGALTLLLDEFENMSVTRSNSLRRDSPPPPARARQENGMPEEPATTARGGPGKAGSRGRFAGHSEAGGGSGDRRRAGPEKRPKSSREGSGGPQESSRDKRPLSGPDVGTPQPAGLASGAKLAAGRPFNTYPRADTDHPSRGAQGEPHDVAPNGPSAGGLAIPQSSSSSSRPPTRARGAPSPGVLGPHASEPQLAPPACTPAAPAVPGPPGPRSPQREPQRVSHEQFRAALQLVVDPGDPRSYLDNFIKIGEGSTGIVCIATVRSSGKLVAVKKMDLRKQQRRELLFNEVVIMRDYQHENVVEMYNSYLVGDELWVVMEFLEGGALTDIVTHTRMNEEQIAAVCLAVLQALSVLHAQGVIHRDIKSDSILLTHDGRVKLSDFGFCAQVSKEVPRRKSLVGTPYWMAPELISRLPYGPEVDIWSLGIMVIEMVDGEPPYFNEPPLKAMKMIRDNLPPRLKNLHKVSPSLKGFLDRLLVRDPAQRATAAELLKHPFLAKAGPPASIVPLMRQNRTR

Serine/threonine-protein kinase BRSK2 (Homo sapiens), sequence (Q8IWQ3 whole entry): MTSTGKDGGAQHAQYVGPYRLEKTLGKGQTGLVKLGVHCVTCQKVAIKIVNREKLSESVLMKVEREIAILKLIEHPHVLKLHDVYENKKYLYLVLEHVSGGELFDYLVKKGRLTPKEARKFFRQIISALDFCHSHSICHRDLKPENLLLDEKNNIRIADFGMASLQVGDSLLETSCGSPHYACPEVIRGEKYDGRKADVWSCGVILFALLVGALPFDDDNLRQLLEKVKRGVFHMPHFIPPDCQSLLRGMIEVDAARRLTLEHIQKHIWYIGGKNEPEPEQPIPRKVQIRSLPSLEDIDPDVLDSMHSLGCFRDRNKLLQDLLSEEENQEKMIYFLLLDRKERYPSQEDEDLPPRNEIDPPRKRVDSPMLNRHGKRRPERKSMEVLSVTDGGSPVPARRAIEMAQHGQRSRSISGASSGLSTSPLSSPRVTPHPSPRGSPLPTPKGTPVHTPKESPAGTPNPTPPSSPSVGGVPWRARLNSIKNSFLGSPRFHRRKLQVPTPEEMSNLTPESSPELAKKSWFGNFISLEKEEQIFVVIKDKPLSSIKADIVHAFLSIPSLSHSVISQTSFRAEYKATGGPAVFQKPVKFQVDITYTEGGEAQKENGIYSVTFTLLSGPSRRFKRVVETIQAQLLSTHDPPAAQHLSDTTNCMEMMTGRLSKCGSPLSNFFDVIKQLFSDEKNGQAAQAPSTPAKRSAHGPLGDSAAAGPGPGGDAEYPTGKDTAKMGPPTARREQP
Serine/threonine-protein kinase WNK3 (Homo sapiens), sequence (Q9BYP7 whole entry): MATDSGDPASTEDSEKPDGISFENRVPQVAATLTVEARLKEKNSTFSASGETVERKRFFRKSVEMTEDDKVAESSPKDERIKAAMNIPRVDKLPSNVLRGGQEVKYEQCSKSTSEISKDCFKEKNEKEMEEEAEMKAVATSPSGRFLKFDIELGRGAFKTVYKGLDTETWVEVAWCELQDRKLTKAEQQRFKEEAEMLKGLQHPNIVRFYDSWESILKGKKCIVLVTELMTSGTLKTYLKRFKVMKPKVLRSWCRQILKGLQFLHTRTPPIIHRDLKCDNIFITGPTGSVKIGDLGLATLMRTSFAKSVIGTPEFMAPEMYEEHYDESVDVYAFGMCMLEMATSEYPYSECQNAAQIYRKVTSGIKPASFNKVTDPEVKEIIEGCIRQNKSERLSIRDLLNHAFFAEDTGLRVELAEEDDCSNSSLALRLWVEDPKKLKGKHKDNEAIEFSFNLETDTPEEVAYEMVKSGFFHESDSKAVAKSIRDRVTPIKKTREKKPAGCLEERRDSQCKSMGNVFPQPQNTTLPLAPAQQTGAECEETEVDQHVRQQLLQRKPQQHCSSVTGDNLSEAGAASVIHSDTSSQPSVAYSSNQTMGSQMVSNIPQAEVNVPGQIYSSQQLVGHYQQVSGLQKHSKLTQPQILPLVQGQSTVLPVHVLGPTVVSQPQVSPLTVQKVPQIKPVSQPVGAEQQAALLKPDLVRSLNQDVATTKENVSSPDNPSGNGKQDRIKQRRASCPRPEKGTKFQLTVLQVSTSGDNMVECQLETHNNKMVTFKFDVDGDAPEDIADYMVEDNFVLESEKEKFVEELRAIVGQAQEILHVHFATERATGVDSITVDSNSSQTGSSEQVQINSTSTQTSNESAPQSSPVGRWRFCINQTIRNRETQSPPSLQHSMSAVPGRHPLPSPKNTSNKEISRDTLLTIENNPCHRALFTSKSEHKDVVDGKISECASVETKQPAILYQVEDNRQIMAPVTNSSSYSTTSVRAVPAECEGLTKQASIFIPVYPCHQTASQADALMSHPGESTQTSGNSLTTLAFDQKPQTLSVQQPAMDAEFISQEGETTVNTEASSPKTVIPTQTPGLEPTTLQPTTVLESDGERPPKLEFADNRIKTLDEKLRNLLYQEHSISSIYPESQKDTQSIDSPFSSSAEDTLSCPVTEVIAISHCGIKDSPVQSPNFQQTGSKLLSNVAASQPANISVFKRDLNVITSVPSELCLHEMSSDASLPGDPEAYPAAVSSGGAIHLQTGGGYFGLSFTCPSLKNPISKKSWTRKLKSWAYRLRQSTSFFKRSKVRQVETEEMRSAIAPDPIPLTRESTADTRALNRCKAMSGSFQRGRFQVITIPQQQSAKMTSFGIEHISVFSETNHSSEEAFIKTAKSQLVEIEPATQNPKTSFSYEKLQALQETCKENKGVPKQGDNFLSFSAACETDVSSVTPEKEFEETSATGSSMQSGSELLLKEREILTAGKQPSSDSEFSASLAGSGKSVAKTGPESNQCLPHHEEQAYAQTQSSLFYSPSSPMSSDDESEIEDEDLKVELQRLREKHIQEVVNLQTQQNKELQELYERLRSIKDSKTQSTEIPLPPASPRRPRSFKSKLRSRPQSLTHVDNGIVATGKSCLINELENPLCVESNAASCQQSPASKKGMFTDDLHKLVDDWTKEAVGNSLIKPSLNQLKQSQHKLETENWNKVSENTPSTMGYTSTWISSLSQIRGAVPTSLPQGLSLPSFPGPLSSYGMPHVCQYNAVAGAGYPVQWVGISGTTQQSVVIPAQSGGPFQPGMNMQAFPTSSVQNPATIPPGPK
Mitogen-activated protein kinase kinase kinase 19 (Homo sapiens), sequence (Q56UN5 whole entry): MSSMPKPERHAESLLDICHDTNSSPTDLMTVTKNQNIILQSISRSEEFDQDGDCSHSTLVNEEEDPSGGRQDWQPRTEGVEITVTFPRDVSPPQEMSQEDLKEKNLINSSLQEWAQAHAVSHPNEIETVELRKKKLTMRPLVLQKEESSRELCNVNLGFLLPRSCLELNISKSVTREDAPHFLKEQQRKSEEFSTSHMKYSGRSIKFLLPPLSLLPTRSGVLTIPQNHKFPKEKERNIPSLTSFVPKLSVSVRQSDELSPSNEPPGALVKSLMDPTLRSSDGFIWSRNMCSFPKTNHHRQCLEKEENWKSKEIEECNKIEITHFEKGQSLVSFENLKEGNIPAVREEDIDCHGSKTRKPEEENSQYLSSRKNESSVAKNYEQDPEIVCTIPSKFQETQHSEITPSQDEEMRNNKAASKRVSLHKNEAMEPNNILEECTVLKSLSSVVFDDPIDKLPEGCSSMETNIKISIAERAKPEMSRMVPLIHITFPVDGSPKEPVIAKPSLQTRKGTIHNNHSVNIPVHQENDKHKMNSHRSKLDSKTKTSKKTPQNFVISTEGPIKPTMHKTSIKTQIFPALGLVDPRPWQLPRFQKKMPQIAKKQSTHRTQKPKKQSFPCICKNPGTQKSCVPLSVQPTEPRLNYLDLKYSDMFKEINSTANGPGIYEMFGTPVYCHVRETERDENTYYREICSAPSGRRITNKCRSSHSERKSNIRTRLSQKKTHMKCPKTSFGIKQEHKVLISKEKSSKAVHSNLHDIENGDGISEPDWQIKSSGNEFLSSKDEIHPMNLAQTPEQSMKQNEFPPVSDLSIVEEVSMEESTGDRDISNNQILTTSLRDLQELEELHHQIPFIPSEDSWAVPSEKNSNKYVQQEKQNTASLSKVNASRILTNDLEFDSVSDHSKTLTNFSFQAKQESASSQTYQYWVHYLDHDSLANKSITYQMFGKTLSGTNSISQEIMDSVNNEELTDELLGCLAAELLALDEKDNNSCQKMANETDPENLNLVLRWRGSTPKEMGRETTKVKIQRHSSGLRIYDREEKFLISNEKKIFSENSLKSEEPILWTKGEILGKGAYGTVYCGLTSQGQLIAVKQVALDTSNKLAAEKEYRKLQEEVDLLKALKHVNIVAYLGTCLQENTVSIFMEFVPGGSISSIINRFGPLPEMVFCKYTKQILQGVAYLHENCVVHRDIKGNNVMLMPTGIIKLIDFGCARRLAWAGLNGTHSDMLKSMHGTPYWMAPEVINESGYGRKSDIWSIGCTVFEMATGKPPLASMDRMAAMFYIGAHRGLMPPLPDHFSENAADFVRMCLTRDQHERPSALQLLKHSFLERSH

O=C(NS(=O)(=O)c1ccc(NCC2CCOCC2)c([N+](=O)[O-])c1)c1ccc(N2CCN(Cc3ccc(C(F)(F)F)cc3-c3ccc(Cl)cc3)CC2)cc1Oc1cnc2[nH]ccc2c1 [A-1210227] was tested, and the residual activity [1] was 100%, the residual activity [2] was 63% and the residual activity [3] was 100%. The residual activity [4] was 100%, the residual activity [5] was 100% and the residual activity [6] was 100%. For the same compound, the residual activity [7] was 69%, the residual activity [8] was 69% and the residual activity [9] was 93%. For the same compound, the % Inhibition of Control Specific Binding (Mean n=2) [10] was -13%, the residual activity [11] was 76% and the inhibition [12] was 10.7%. It also gave a residual activity [13] of 100%, a residual activity [14] of 100% and an inhibition [15] of 15.6%. For the same compound, the residual activity [16] was 100%, the residual activity [17] was 100% and the residual activity [18] was 99%. It also gave a residual activity [19] of 71%, a residual activity [20] of 100% and a residual activity [21] of 100%. The residual activity [22] was 73%, the inhibition [23] was 12.3% and the residual activity [24] was 87%. It also gave a residual activity [25] of 98%, a residual activity [26] of 95% and a residual activity [27] of 88%. It also gave a % Inhibition of Control Specific Binding (Mean n=2) [28] of -10.3%, a residual activity [29] of 81% and a % Inhibition of Control Specific Binding (Mean n=2) [30] of 24%. The residual activity [31] was 93%.

CO[C@H]1CC[C@H](CNc2ccc(S(=O)(=O)NC(=O)c3ccc(N4CCN(CC5=C(c6ccc(Cl)cc6)CC(C)(C)CC5)CC4)cc3Oc3cnc4[nH]ccc4c3)cc2[N+](=O)[O-])CC1 [A-1211212] was tested, and the residual activity [1] was 73%, the residual activity [2] was 100% and the residual activity [3] was 82%. The residual activity [4] was 85%, the residual activity [5] was 100% and the residual activity [6] was 100%. The residual activity [7] was 92%, the residual activity [8] was 77% and the residual activity [9] was 91%. It also gave a % Inhibition of Control Specific Binding (Mean n=2) [10] of 21.4%, a residual activity [11] of 89% and an inhibition [12] of 10.2%. For the same compound, the residual activity [13] was 96%, the residual activity [14] was 100% and the inhibition [15] was 33%. The residual activity [16] was 58%, the residual activity [17] was 82% and the residual activity [18] was 99%. It also gave a residual activity [19] of 64%, a residual activity [20] of 100% and a residual activity [21] of 100%. The residual activity [22] was 67%, the inhibition [23] was 1.2% and the residual activity [24] was 78%. The residual activity [25] was 98%, the residual activity [26] was 85% and the residual activity [27] was 100%. The % Inhibition of Control Specific Binding (Mean n=2) [28] was -2.6%, the residual activity [29] was 57% and the % Inhibition of Control Specific Binding (Mean n=2) [30] was 17.3%. It also gave a residual activity [31] of 78%.
